# Compound: CCOC1=CC=CC=C1N=NC2=C(NN(C2=O)C3=NC(=CS3)C4=CC=CC=C4)C [BAM7] + Cc1nc(NC(=O)N2CCC[C@H]2C(N)=O)sc1-c1ccnc(C(C)(C)C(F)(F)F)c1 [Alpelisib] (partner 2 µM)
# Assay: relative viability (nuclei count vs DMSO), 5 days (fraction); higher = more cells survive
# Settings: first compound 0.5 µM
# Procedure, shortened: (§1)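 Lung cancer cell lines, seeded in 1536-well plates, were treated the following day by pin tool with a single drug or with five library-drug doses (not always all listed) in √10 steps on top of a fixed anchor-drug dose. Cells were fixed and nuclei stained in one step after 5 days, and nuclei were counted. Relative viability is the nuclei count for treated wells divided by that for vehicle wells, reported as medians of duplicate plates.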
row,Cell Line,relative viability
1,NCI-H322M,0.859
2,LCLC-97TM1,0.303
3,NCI-H2009,1.21
4,A-427,0.687
5,NCI-H441,0.809
6,NCI-H661,0.736
7,NCI-H1734,0.74
8,NCI-H460,0.514
9,NCI-H2347,1.03
10,SK-LU-1,0.703
11,NCI-H1395,1.23
12,201T,1.05
13,NCI-H1915,1.08
14,HCC-827,1.03
15,LXF-289,1.1
16,NCI-H23,0.743
17,NCI-H647,1.27
18,CAL-12T,1.21
19,NCI-H1651,1.01
20,EPLC-272H,1.08
21,NCI-H2228,0.863
22,NCI-H1792,0.782
23,NCI-H1355,0.786
24,NCI-H3122,0.881
25,NCI-H1437,1.07
26,NCI-H1755,0.994
27,NCI-H2023,0.639
28,HCC-15,0.907

# Same assay, conditions: first compound 5 µM
row,Cell Line,relative viability
1,NCI-H322M,0.816
2,LCLC-97TM1,0.235
3,NCI-H2009,1.15
4,A-427,1.16
5,NCI-H441,0.932
6,NCI-H661,0.7
7,NCI-H1734,0.804
8,NCI-H460,0.468
9,NCI-H2347,1.23
10,SK-LU-1,1.1
11,NCI-H1395,1.04
12,201T,1.05
13,NCI-H1915,1.11
14,HCC-827,0.97
15,LXF-289,1.11
16,NCI-H23,0.782
17,NCI-H647,1.32
18,CAL-12T,1.19
19,NCI-H1651,0.861
20,EPLC-272H,0.802
21,NCI-H2228,0.879
22,NCI-H1792,0.85
23,NCI-H1355,0.832
24,NCI-H3122,0.822
25,NCI-H1437,1
26,NCI-H1755,0.982
27,NCI-H2023,0.507
28,HCC-15,0.923

# Same assay, conditions: first compound 15.81 µM
row,Cell Line,relative viability
1,NCI-H322M,0.803
2,LCLC-97TM1,0.235
3,NCI-H2009,1.1
4,A-427,1.11
5,NCI-H441,0.793
6,NCI-H661,0.699
7,NCI-H1734,0.638
8,NCI-H460,0.473
9,NCI-H2347,1.04
10,SK-LU-1,0.955
11,NCI-H1395,1.04
12,201T,0.825
13,NCI-H1915,1.03
14,HCC-827,1.01
15,LXF-289,1.02
16,NCI-H23,0.656
17,NCI-H647,1.05
18,CAL-12T,1
19,NCI-H1651,0.967
20,EPLC-272H,0.877
21,NCI-H2228,0.763
22,NCI-H1792,0.624
23,NCI-H1355,0.725
24,NCI-H3122,0.804
25,NCI-H1437,0.911
26,NCI-H1755,0.902
27,NCI-H2023,0.502
28,HCC-15,0.883

# Same assay, conditions: first compound 50 µM
row,Cell Line,relative viability
1,NCI-H322M,0.801
2,LCLC-97TM1,0.316
3,NCI-H2009,1.15
4,A-427,1.06
5,NCI-H441,0.682
6,NCI-H661,0.699
7,NCI-H1734,0.676
8,NCI-H460,0.403
9,NCI-H2347,0.985
10,SK-LU-1,1.09
11,NCI-H1395,1.24
12,201T,1.01
13,NCI-H1915,1.05
14,HCC-827,1
15,LXF-289,1.07
16,NCI-H23,0.723
17,NCI-H647,1.17
18,CAL-12T,1.39
19,NCI-H1651,0.883
20,EPLC-272H,0.831
21,NCI-H2228,0.607
22,NCI-H1792,0.708
23,NCI-H1355,0.772
24,NCI-H3122,0.763
25,NCI-H1437,0.909
26,NCI-H1755,0.948
27,NCI-H2023,0.485
28,HCC-15,0.853

# Compound: CCn1c(-c2nonc2N)nc2c(C#CC(C)(C)O)ncc(OC[C@H]3CCCNC3)c21 + CC(=O)Nc1cccc(-n2c(=O)n(C3CC3)c(=O)c3c(Nc4ccc(I)cc4F)n(C)c(=O)c(C)c32)c1 [Trametinib] (partner 0.02 µM)
# Assay: as above
# Settings: first compound 0.01 µM
# Procedure, shortened: as §1
row,Cell Line,relative viability
1,NCI-H322M,0.546
2,LCLC-97TM1,0.172
3,NCI-H2009,0.268
4,A-427,0.771
5,NCI-H441,0.435
6,NCI-H661,0.52
7,NCI-H1734,0.705
8,NCI-H460,0.171
9,NCI-H2347,0.251
10,SK-LU-1,0.527
11,NCI-H1395,0.947
12,201T,0.707
13,NCI-H1915,0.293
14,HCC-827,0.532
15,LXF-289,0.686
16,NCI-H23,0.373
17,NCI-H647,0.481
18,CAL-12T,0.303
19,NCI-H1651,0.83
20,EPLC-272H,0.324

# From the supplement of paper PMC10307832
